Consider 17 compounds from US9409858B2, “Selective histone deactylase 6 inhibitors” (H. LEE MOFFITT CANCER CENTER AND RESEARCH INSTITUTE, INC., priority 2012, dated 2016).

“Also recorded” adds a separate entry of the source.

For assay [1], the target named is human, recombinant full-length HDAC1 (Homo sapiens (Human), UniProt Q13547). The assay can be described thus: HDAC inhibition assay, HDAC1. It is filed as biochemical.
Assay [2] deals with human, recombinant full-length HDAC6 (Homo sapiens (Human), UniProt Q9UBN7). The assay can be described thus: HDAC inhibition assay, HDAC6.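 Also: recombinant full-length human HDAC1 and HDAC6 made in Sf9 cells, compound preincubated 5-10 min then substrate reaction 2 h at 30 °C, ten threefold dilutions from 30 µM.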 The format is biochemical.
Sequence of human, recombinant full-length HDAC6 (Q9UBN7 whole entry): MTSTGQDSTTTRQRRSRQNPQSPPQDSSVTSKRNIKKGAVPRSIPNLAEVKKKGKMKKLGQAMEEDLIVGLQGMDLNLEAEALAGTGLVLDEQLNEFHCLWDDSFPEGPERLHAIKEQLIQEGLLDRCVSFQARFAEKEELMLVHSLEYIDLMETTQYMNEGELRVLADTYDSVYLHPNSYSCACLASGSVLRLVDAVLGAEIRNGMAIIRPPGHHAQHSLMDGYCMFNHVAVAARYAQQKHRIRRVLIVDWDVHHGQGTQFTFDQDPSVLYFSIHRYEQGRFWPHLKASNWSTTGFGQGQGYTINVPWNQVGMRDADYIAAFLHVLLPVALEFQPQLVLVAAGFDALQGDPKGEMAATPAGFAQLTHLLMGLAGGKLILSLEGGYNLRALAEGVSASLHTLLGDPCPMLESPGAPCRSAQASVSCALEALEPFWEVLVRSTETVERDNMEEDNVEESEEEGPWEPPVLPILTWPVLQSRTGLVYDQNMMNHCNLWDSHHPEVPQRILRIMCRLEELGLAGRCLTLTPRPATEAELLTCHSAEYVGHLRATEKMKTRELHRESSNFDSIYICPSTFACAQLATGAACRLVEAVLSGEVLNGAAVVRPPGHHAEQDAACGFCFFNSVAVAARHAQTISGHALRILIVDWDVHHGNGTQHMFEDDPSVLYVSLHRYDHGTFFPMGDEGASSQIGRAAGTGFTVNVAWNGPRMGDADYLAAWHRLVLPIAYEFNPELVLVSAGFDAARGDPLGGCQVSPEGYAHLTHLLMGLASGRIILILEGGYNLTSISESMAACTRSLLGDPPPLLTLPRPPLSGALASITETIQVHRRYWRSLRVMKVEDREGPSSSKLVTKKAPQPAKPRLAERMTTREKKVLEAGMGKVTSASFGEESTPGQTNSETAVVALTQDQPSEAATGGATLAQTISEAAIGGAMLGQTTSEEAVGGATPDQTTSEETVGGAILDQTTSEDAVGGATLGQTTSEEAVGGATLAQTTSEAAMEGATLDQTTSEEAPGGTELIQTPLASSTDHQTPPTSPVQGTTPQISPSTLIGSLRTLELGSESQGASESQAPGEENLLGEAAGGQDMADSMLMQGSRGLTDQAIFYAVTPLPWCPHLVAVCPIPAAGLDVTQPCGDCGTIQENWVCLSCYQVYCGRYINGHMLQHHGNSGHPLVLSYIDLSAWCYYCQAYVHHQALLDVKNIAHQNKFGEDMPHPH
In assay [3] the test system is acetyl α-tubulin in B16 melanoma cells. Kind of assay: Tubulin acetylation Western blot assay. It is filed as cell-based, murine. The conditions noted are these: low nanomolar treatment, 24 h. As for the experimental part:
(§1) […]. B16 melanoma cells were plated at 10^5 cells/well in 12 well plates and allowed to adhere overnight. A 50 mM stock of compound was then added by serial dilutions in complete medium to the indicated concentrations. Cells were incubated for 24 h under humidified conditions (37° C., 5% CO2). Wells were then washed with cold PBS, and cells were lysed in a buffer containing 10 mM Tris-HCl pH 8.0, 10% SDS, […], 100 mM DTT, and 1× protease inhibitor (Roche). Cells were lysed for 30 min on ice and then sonicated for 8 min (8 cycles of 30 s on/30 s rest). Cells were then boiled for 10 min with 6× gel loading buffer and resolved on 4-15% gradient gels and subsequently transferred onto nitrocellulose membranes. Membranes were blocked with 5% milk in PBS-T and detection of specific antigens using antibodies against acetyl-H3 and H3 (Cell Signaling), and acetyl-α-tubulin and α-tubulin (Sigma). Bands were detected by scanning blots with LI-COR Odyssey imaging system using both 700 and 800 channels.
For orientation: A western blot detects proteins with antibodies after separation by electrophoresis.

For assay [4], the system named is histone H3 acetylation in B16 melanoma cells. The assay can be described thus: Histone acetylation Western blot assay. It is filed as cell-based, murine. As for the experimental part:
as §1

Assay [5] has as its target HDAC3 (Homo sapiens (Human), UniProt O15379). The assay can be described thus: HDAC isoform profile, HDAC3. The format is biochemical. The conditions noted are these: Table 3 isoform profile.
Assay [6] concerns B16 murine melanoma cells. The assay can be described thus: B16 melanoma cell growth inhibition assay (MTS). The format is cell-based. As for the experimental part:
B16 murine melanoma cells were plated at 5×10^3/well in 96 well flat bottom plates. The following day, media was changed to that containing various concentrations of HDACi or matched DMSO vehicle concentrations diluted in complete medium done in triplicate. Cells were incubated for 48 hours at 37° C. and 5% CO2. […] Briefly, 20 μL of reagent were added per well and incubated at 37° C. for 3 hours. […] All values were then normalized and expressed as a percentage of medium control (100%).

For assay [7], the system named is melanoma. The assay can be described thus: Anti-melanoma effect in vivo. The conditions noted are these: alone or in combination with anti-CLTA4.
Assay [8] deals with naIve and anergic T-cells. The assay can be described thus: In vitro antigen-presenting studies with treated macrophages. The format is cell-based.
For assay [9], the system named is JAK2/STAT3 phosphorylation. Kind of assay: JAK2/STAT3 phosphorylation in B16 murine melanoma cells in vivo.
The test system of assay [10] is MCL. The assay can be described thus: Antitumor effect in MCL-bearing mice. The format is in vivo.
In assay [11] the test system is antigen-specific T-cell responses. The assay can be described thus: Antigen-specific T-cell responses to vaccination in vivo. Details: species or system mice. To be noted: in vivo treatment.
Assay [12] deals with macrophages. Kind of assay: Immunological effects upon macrophages. It is filed as cell-based.
The test system of assay [13] is STAT3 phosphorylation and recruitment to the IL-10 gene promotor. Kind of assay: STAT3 phosphorylation and recruitment to the IL-10 gene promotor in APCs. The format is cell-based.
Setting [14] is: Table 1, mean of two experiments ± standard deviation, 10-point enzyme assay.

Sequence of human, recombinant full-length HDAC1 (Q13547 whole entry): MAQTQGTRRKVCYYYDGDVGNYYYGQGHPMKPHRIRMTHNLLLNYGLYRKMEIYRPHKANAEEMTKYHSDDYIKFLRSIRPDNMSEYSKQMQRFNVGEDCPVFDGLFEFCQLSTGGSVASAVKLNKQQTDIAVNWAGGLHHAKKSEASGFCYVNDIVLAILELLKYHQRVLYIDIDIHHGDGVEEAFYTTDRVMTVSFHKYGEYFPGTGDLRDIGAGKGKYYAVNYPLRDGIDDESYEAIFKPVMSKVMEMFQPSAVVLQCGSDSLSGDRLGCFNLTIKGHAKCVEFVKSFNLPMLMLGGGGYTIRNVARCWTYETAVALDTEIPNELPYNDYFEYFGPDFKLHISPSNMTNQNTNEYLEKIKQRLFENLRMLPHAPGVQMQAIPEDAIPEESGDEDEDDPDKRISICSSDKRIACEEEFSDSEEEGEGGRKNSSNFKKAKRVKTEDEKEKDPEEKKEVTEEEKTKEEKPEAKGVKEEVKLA
Sequence of HDAC3 (O15379 whole entry, canonical isoform): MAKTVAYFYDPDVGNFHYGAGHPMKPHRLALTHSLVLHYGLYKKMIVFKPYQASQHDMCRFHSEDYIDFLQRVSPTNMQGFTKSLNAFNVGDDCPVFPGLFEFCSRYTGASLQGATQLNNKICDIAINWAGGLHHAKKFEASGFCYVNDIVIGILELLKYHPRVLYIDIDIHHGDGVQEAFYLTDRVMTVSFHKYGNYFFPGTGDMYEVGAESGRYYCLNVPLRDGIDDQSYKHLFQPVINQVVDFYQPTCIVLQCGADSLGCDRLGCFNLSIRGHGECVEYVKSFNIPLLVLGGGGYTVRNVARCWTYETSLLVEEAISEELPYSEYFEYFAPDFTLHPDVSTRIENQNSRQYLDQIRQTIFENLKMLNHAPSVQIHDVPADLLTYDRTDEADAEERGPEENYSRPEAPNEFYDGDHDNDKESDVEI
Sequence of HDAC3 (Q9Y618 395-489 partner): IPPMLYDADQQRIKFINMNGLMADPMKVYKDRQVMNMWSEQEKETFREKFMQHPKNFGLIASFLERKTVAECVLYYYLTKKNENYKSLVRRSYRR

The term IC50 denotes the midpoint of a concentration-inhibition curve. On to `COc1ccccc1NC(=O)NCc1ccc(C(=O)NO)cc1` [Compound 1], for which the half-inhibitory concentration (IC50) in assay [1] (setting [14]) is 265 ± 59 nM; in [2] (setting [14]), 139 ± 27 nM. Moreover, the “Fold Selective (HDAC1/HDAC6)” value in assay [2] (Table 1) came out at 2.
For `COc1ccccc1NC(=O)N(CCCN(C)C)Cc1ccc(C(=O)NO)cc1` [Compound 5a, 4-((1-(3-(dimethylamino)propyl)-3-(2-methoxyphenyl)ureido)methyl)-N-hydroxybenzamide] the same measures were 2550 ± 540 nM, 458 ± 64 nM and 6.
For the compound `COc1ccccc1NC(=O)N(CCCO)Cc1ccc(C(=O)NO)cc1` [Compound 5b, N-hydroxy-4-((1-(3-hydroxypropyl)-3-(2-methoxyphenyl)ureido)methyl)-benzamide], the IC50 in assay [1] (setting [14]) came to 1910 ± 570 nM; in assay [2] (setting [14]) it was 2.38 ± 0.38 nM. The “Fold Selective (HDAC1/HDAC6)” value in [2] (Table 1) is reported as 803.
With `COc1ccccc1NC(=O)N(CCc1c[nH]c2ccccc12)Cc1ccc(C(=O)NO)cc1` [Compound 5c, 4-((1-(2-(1H-indol-3-yl)ethyl)-3-(2-methoxyphenyl)ureido)methyl)-N-hydroxybenzamide], the figures for the IC50 in assay [1] (setting [14]) and in assay [2] (setting [14]) were 8950 ± 770 nM and 468 ± 130 nM, respectively. In assay [2] (Table 1), the “Fold Selective (HDAC1/HDAC6)” value amounted to 19.
As for `COc1ccccc1NC(=O)N(CCc1ccc(O)cc1)Cc1ccc(C(=O)NO)cc1` [Compound 5d, N-hydroxy-4-((1-(4-hydroxyphenethyl)-3-(2-methoxyphenyl)ureido)methyl)-benzamide], the IC50 in assay [1] (setting [14]) came to 1690 ± 120 nM; in [2] (setting [14]) it was 5.8 ± 0.5 nM. Moreover, the “Fold Selective (HDAC1/HDAC6)” value in assay [2] (Table 1) came out at 292.
For `COCCCN(Cc1ccc(C(=O)NO)cc1)C(=O)Nc1ccccc1` [Compound 5e, N-hydroxy-4-((1-(3-methoxypropyl)-3-phenylureido)methyl)benzamide] the same measures were 5180 ± 130 nM, 11.7 ± 1.7 nM and 443.
On to `COCCN(Cc1ccc(C(=O)NO)cc1)C(=O)Nc1ccccc1` [Compound 5f, N-hydroxy-4-((1-(2-methoxyethyl)-3-phenylureido)methyl)benzamide], for which the results for the IC50 in [1] (setting [14]) and in [2] (setting [14]) were 2250 ± 420 nM and 9.26 ± 0.66 nM, respectively. Also, the “Fold Selective (HDAC1/HDAC6)” value in assay [2] (Table 1) worked out at 243.
Consider `CCCCN(Cc1ccc(C(=O)NO)cc1)C(=O)Nc1ccccc1` [Compound 5g, 4-((1-butyl-3-phenylureido)methyl)-N-hydroxybenzamide], for which, in [3], the “acetyl α-tubulin levels” value is given as “dose-dependant increase of acetyl α-tubulin levels; also recorded: increased acetyl-tubulin levels”. Moreover, the “histone H3 acetylation” value in assay [4] (concentrations of 1 and 10 μM) is on record as “observable increase in histone H3 acetylation”; in [4] (low nanomolar treatment, 24 h), “without a concamanent elevation of histone H3 acetylation”. The compound further registered an IC50 in [5] of 6680 ± 1750 nM.
Turning to `O=C(NO)c1ccc(CN(CCc2ccccc2)C(=O)Nc2ccccc2)cc1` [Compound 5h, N-hydroxy-4-((1-phenethyl-3-phenylureido)methyl)benzamide], the half-inhibitory concentration (IC50) came to 3120 ± 640 nM in [1] (setting [14]) and 14 ± 0.75 nM in assay [2] (setting [14]). Further, the “Fold Selective (HDAC1/HDAC6)” value in assay [2] (Table 1) is 222. In addition, in assay [6], the “growth inhibition of B16 melanoma cells (in words)” value is listed as “capable of inhibiting the growth of B16 melanoma cell line”.
Take `CCCCN(C(=O)NCc1ccc(C(=O)NO)cc1)c1ccccc1` [Compound 8a, 4-((3-butyl-3-phenylureido)methyl)-N-hydroxybenzamide]: the IC50 in assay [1] (setting [14]) was determined as 8120 ± 600 nM; in assay [2] (setting [14]), 25.2 ± 2.5 nM. Besides, in assay [2] (Table 1), the “Fold Selective (HDAC1/HDAC6)” value was 322.
Turning to `COc1ccc(NC(=O)NCc2ccc(C(=O)NO)cc2)cc1` [Compound 9a], the IC50 in assay [1] (setting [14]) is 1060 nM; in [2] (setting [14]) it was 8.3 nM. Moreover, the “Fold Selective (HDAC1/HDAC6)” value in assay [2] (Table 1) came to 128.
For `Cc1ccnc(NC(=O)NCc2ccc(C(=O)NO)cc2)c1` [Compound 9b] the same measures were 579 nM, 2.2 nM and 263.
The matching figures for `Cc1cc(NC(=O)NCc2ccc(C(=O)NO)cc2)no1` [Compound 9c]: 1000 nM, 6.9 nM and 145.
Turning to `COc1ccccc1N1C(=O)N(Cc2ccc(C(=O)NO)cc2)C(C)(C)C1=O` [Compound 10a], the IC50 in assay [1] (Table 2, cyclic urea compounds) came to 28600 nM. Also, in assay [2] (Table 2, cyclic urea compounds), the “Fold Selective (HDAC1/HDAC6)” value was found to be 386 and the IC50 was 74.2 nM.
`CC(C)[C@@H]1C(=O)N(c2ccccc2)C(=O)N1Cc1ccc(C(=O)NO)cc1` [Compound 10b]: the half-maximal inhibitory concentration (IC50) in assay [1] (Table 2, cyclic urea compounds) is 11800 nM. Moreover, in assay [2] (Table 2, cyclic urea compounds), the “Fold Selective (HDAC1/HDAC6)” value is on record as 531 and the IC50 stood at 22.2 nM.
The matching figures for `O=C(NO)c1ccc(CN2C(=O)N[C@@H](Cc3ccccc3)C2=O)cc1` [Compound 11a]: 7560 nM, 295 and 25.6 nM.
Consider `CN1CCc2c(c3ccccc3n2Cc2ccc(C(=O)NO)cc2)C1` [Tubastatin A], for which, in assay [7], the anti-melanoma effect result is on record as “anti-melanoma effect”. The “activation of T-cells by treated macrophages” value in assay [8] was “better activators of naIve T-cells and restore the responsiveness of anergic T-cells”. Moreover, the JAK2/STAT3 phosphorylation result in assay [9] is “inhibits JAK2/STAT3 phosphorylation”. Further, in assay [10], the antitumor effect result was “strong antitumor effect”. Besides, the results for the “antigen-specific T-cell responses to vaccination” value in assay [11] and in assay [11] (listed as Tubastatin-A) were “augments antigen-specific CD4+ T-cell responses to vaccination” and “enhances antigen-specific T-cell responses to vaccination”, respectively. Moreover, the IL-10 production result in assay [12] is “inhibits IL-10 production”. Moreover, the “expression of co-stimulatory molecules” value in assay [12] is recorded as “increased the expression of co-stimulatory molecules”. Further, the “STAT3 phosphorylation and recruitment to the IL-10 gene promotor” value in assay [13] is “decreased STAT3 phosphorylation and recruitment to the IL-10 gene promotor”.
